Reference: patent US12310975B2, “Modulators of BCL6 proteolysis and associated methods of use” (Arvinas Operations, Inc., priority 2019, dated 2025)

target: BCL6 (Homo sapiens (Human), UniProt P41182); experiment: Immunofluorescence high content imaging of BCL6 degradation in T47D cells; type: cell-based; conditions: not given
In short: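 T47D cells were treated 3 days at 37 °C with an 11-point 3-fold dilution series (top 0.1 or 1 μM), then fixed, permeabilized and immunostained for BCL6 with Alexa-488 secondary, CellMask and Hoechst. BCL6 signal was imaged at 10×, 4 fields/well, with top-hat smoothing.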

| Structure (SMILES) | IC50 [nM] |
| --- | --- |
| CC(=O)COc1cc2cc(Nc3nc(N4CCC(OCCOC5CCN(c6ccc7c(c6)C(=O)N(C6CCC(=O)NC6=O)C7=O)CC5)C4)ncc3Cl)ccc2n(C)c1=O (stereo not drawn) [compound 180, 5-(4-(2-((1-(5-chloro-4-((1-methyl-2-oxo-3-(2-oxopropoxy)-1,2-dihydroquinolin-6-yl)amino)pyrimidin-2-yl)pyrrolidin-3-yl)oxy)ethoxy)piperidin-1-yl)-2-(2,6-dioxopiperidin-3-yl)isoindoline-1,3-dione] | ≥ 100 |
| CNC(=O)COc1cc2cc(Nc3nc(N4CCC(CN5CCN(c6cccc7c6C(=O)N(C6CCC(=O)NC6=O)C7=O)CC5)CC4)ncc3Cl)ccc2n(C)c1=O (stereo not drawn) [compound 260, 2-((6-((5-chloro-2-(4-((4-(2-(2,6-dioxopiperidin-3-yl)-1,3-dioxoisoindolin-4-yl)piperazin-1-yl)methyl)piperidin-1-yl)pyrimidin-4-yl)amino)-1-methyl-2-oxo-1,2-dihydroquinolin-3-yl)oxy)-N-methylacetamide] | 10 to 50 |
| Cc1nnc(-c2cc3cc(Nc4nc(N5CCN(C(C)(C)C6CCN(c7ccc8c(c7)C(=O)N(C7CCC(=O)NC7=O)C8=O)CC6)CC5)ncc4Cl)ccc3n(C)c2=O)o1 (stereo not drawn) [compound 285, 5-(4-{2-[4-(5-chloro-4-{[1-methyl-3-(5-methyl-1,3,4-oxadiazol-2-yl)-2-oxo-1,2-dihydroquinolin-6-yl]amino}pyrimidin-2-yl)piperazin-1-yl]propan-2-yl}piperidin-1-yl)-2-(2,6-dioxopiperidin-3-yl)-2,3-dihydro-1H-isoindole-1,3-dione] | 10 to 50 |
| CNC(=O)COc1cc2cc(Nc3nc(N4CCC(CCOC5CN(c6ccc7c(c6)C(=O)N(C6CCC(=O)NC6=O)C7=O)C5)CC4)ncc3Cl)ccc2n(C)c1=O (stereo not drawn) [compound 247, 2-((6-((5-chloro-2-(4-(2-((1-(2-(2,6-dioxopiperidin-3-yl)-1,3-dioxoisoindolin-5-yl)azetidin-3-yl)oxy)ethyl)piperidin-1-yl)pyrimidin-4-yl)amino)-1-methyl-2-oxo-1,2-dihydroquinolin-3-yl)oxy)-N-methylacetamide] | < 10 |
| CNC(=O)Cc1cc2cc(Nc3nc(N4CCC(CN5CCN(c6ccc7c(c6)C(=O)N(C6CCC(=O)NC6=O)C7=O)CC5)CC4)ncc3Cl)ccc2n(C)c1=O (stereo not drawn) [compound 239, 2-(6-((5-chloro-2-(4-((4-(2-(2,6-dioxopiperidin-3-yl)-1,3-dioxoisoindolin-5-yl)piperazin-1-yl)methyl)piperidin-1-yl)pyrimidin-4-yl)amino)-1-methyl-2-oxo-1,2-dihydroquinolin-3-yl)-N-methylacetamide] | ≥ 100 |

same assay, conditions: T47D

| Structure (SMILES) | Dmax [%] |
| --- | --- |
| CNC(=O)COc1cc2cc(Nc3nc(N4CCC(CN5CCN(c6cccc7c6C(=O)N(C6CCC(=O)NC6=O)C7=O)CC5)CC4)ncc3Cl)ccc2n(C)c1=O (stereo not drawn) [compound 260, 2-((6-((5-chloro-2-(4-((4-(2-(2,6-dioxopiperidin-3-yl)-1,3-dioxoisoindolin-4-yl)piperazin-1-yl)methyl)piperidin-1-yl)pyrimidin-4-yl)amino)-1-methyl-2-oxo-1,2-dihydroquinolin-3-yl)oxy)-N-methylacetamide] | ≥ 70 |
| Cc1nnc(-c2cc3cc(Nc4nc(N5CCN(C(C)(C)C6CCN(c7ccc8c(c7)C(=O)N(C7CCC(=O)NC7=O)C8=O)CC6)CC5)ncc4Cl)ccc3n(C)c2=O)o1 (stereo not drawn) [compound 285, 5-(4-{2-[4-(5-chloro-4-{[1-methyl-3-(5-methyl-1,3,4-oxadiazol-2-yl)-2-oxo-1,2-dihydroquinolin-6-yl]amino}pyrimidin-2-yl)piperazin-1-yl]propan-2-yl}piperidin-1-yl)-2-(2,6-dioxopiperidin-3-yl)-2,3-dihydro-1H-isoindole-1,3-dione] | < 50 |
| CNC(=O)COc1cc2cc(Nc3nc(N4CCC(CCOC5CN(c6ccc7c(c6)C(=O)N(C6CCC(=O)NC6=O)C7=O)C5)CC4)ncc3Cl)ccc2n(C)c1=O (stereo not drawn) [compound 247, 2-((6-((5-chloro-2-(4-(2-((1-(2-(2,6-dioxopiperidin-3-yl)-1,3-dioxoisoindolin-5-yl)azetidin-3-yl)oxy)ethyl)piperidin-1-yl)pyrimidin-4-yl)amino)-1-methyl-2-oxo-1,2-dihydroquinolin-3-yl)oxy)-N-methylacetamide] | 50 to 70 |

same assay, conditions: T47D cells

| Structure (SMILES) | Dmax [%] | IC50 [nM] |
| --- | --- | --- |
| CNC(=O)COc1cc2cc(Nc3nc(N4CCC(OC5CC6(CCN(c7ccc8c(c7)C(=O)N(C7CCC(=O)NC7=O)C8=O)CC6)C5)CC4)ncc3Cl)ccc2n(C(C)C)c1=O (stereo not drawn) [compound 390, 2-{[6-({5-chloro-2-[4-({7-[2-(2,6-dioxopiperidin-3-yl)-1,3-dioxo-2,3-dihydro-1H-isoindol-5-yl]-7-azaspiro[3.5]nonan-2-yl}oxy)piperidin-1-yl]pyrimidin-4-yl}amino)-2-oxo-1-(propan-2-yl)-1,2-dihydroquinolin-3-yl]oxy}-N-methylacetamide] | 50 to 70 | < 10 |
| CNC(=O)COc1cc2cc(Nc3nc(N4CCN(CCC5CCN(c6ccc7c(c6)C(=O)N(C6CCC(=O)NC6=O)C7=O)CC5)CC4)ncc3Cl)ccc2n(C)c1=O (stereo not drawn) [compound 322, 2-{[6-({5-chloro-2-[4-(2-{1-[2-(2,6-dioxopiperidin-3-yl)-1,3-dioxo-2,3-dihydro-1H-isoindol-5-yl]piperidin-4-yl}ethyl)piperazin-1-yl]pyrimidin-4-yl}amino)-1-methyl-2-oxo-1,2-dihydroquinolin-3-yl]oxy}-N-methylacetamide] | 50 to 70 | 10 to 50 |
| CCn1c(=O)c(OCC(=O)NC)cc2cc(Nc3nc(N4CCC(OC5CN(C6CN(c7ccc8c(c7)C(=O)N(C7CCC(=O)NC7=O)C8=O)C6)C5)CC4)ncc3Cl)ccc21 (stereo not drawn) [compound 328, 2-{[6-({5-chloro-2-[4-({1′-[2-(2,6-dioxopiperidin-3-yl)-1,3-dioxo-2,3-dihydro-1H-isoindol-5-yl]-[1,3′-biazetidin]-3-yl}oxy)piperidin-1-yl]pyrimidin-4-yl}amino)-1-ethyl-2-oxo-1,2-dihydroquinolin-3-yl]oxy}-N-methylacetamide] | 50 to 70 | < 10 |
| CNC(=O)COc1cc2cc(Nc3nc(N4CCC(CN5CCC(c6cc(C(=O)N7CCC7)cc(N7CCC(=O)NC7=O)c6)CC5)CC4)ncc3Cl)ccc2n(C(C)C)c1=O [compound 428, 2-{[6-({2-[4-({4-[3-(azetidine-1-carbonyl)-5-(2,4-dioxo-1,3-diazinan-1-yl)phenyl]piperidin-1-yl}methyl)piperidin-1-yl]-5-chloropyrimidin-4-yl}amino)-2-oxo-1-(propan-2-yl)-1,2-dihydroquinolin-3-yl]oxy}-N-methylacetamide] |  | ≥ 100 |
| CNC(=O)COc1cc2cc(Nc3nc(N4CCC5(CC4)CC(OC4CCN(c6ccc7c(c6)C(=O)N(C6CCC(=O)NC6=O)C7=O)CC4)C5)ncc3Cl)ccc2n(C(C)C)c1=O (stereo not drawn) [compound 392, 2-{[6-({5-chloro-2-[2-({1-[2-(2,6-dioxopiperidin-3-yl)-1,3-dioxo-2,3-dihydro-1H-isoindol-5-yl]piperidin-4-yl}oxy)-7-azaspiro[3.5]nonan-7-yl]pyrimidin-4-yl}amino)-2-oxo-1-(propan-2-yl)-1,2-dihydroquinolin-3-yl]oxy}-N-methylacetamide] |  | ≥ 100 |
| CCn1c(=O)c(OCC(=O)NC)cc2cc(Nc3nc(N4CCN([C@@H]5C[C@@H](COc6ccc7c(c6)C(=O)N(C6CCC(=O)NC6=O)C7=O)N(C)C5)CC4)ncc3Cl)ccc21 (stereo partly drawn) [compound 357, 2-({6-[(5-chloro-2-{4-[(3R,5S)-5-({[2-(2,6-dioxopiperidin-3-yl)-1,3-dioxo-2,3-dihydro-1H-isoindol-5-yl]oxy}methyl)-1-methylpyrrolidin-3-yl]piperazin-1-yl}pyrimidin-4-yl)amino]-1-ethyl-2-oxo-1,2-dihydroquinolin-3-yl}oxy)-N-methylacetamide] | < 50 | 50 to 100 |
| CNC(=O)COc1cc2cc(Nc3nc(N4CCN(C(C)(C)C5CCN(c6cccc(C(=O)NC7CCC(=O)NC7=O)[n+]6[O-])CC5)CC4)ncc3Cl)ccc2n(C)c1=O (stereo not drawn) [compound 396, 2-[4-(2-{4-[5-chloro-4-({1-methyl-3-[(methylcarbamoyl)methoxy]-2-oxo-1,2-dihydroquinolin-6-yl}amino)pyrimidin-2-yl]piperazin-1-yl}propan-2-yl)piperidin-1-yl]-6-[(2,6-dioxopiperidin-3-yl)carbamoyl]pyridin-1-ium-1-olate] | < 50 | 10 to 50 |
| CNC(=O)COc1cc2cc(Nc3nc(N4CCC(OC5CC6(C5)CN(c5ccc7c(c5)C(=O)N(C5CCC(=O)NC5=O)C7=O)C6)CC4)ncc3Cl)ccc2n(C(C)C)c1=O (stereo not drawn) [compound 362, 2-{[6-({5-chloro-2-[4-({2-[2-(2,6-dioxopiperidin-3-yl)-1,3-dioxo-2,3-dihydro-1H-isoindol-5-yl]-2-azaspiro[3.3]heptan-6-yl}oxy)piperidin-1-yl]pyrimidin-4-yl}amino)-2-oxo-1-(propan-2-yl)-1,2-dihydroquinolin-3-yl]oxy}-N-methylacetamide] | 50 to 70 | < 10 |

same assay, conditions: class symbols A-D, read-out: EC50 (nM)*

| Structure (SMILES) | DC50 [nM] |
| --- | --- |
| CNC(=O)COc1cc2cc(Nc3nc(N4CCC(OCc5ccc(OCCOCCOCCOc6ccc7c(c6)CN(C6CCC(=O)NC6=O)C7=O)cc5)CC4)ncc3Cl)ccc2n(C)c1=O (stereo not drawn) [compound 118, 2-((6-((5-chloro-2-(4-((4-(2-(2-(2-((2-(2,6-dioxopiperidin-3-yl)-1-oxoisoindolin-5-yl)oxy)ethoxy)ethoxy)ethoxy)benzyl)oxy)piperidin-1-yl)pyrimidin-4-yl)amino)-1-methyl-2-oxo-1,2-dihydroquinolin-3-yl)oxy)-N-methylacetamide] | 50 to 100 |
| CNC(=O)COc1cc2cc(Nc3nc(N4CCC(OCCOCCOCCOc5ccc6c(c5)C(=O)N(C5CCC(=O)NC5=O)C6=O)CC4)ncc3Cl)ccc2n(C)c1=O (stereo not drawn) [compound 52, 2-((6-((5-chloro-2-(4-(2-(2-(2-((2-(2,6-dioxopiperidin-3-yl)-1,3-dioxoisoindolin-5-yl)oxy)ethoxy)ethoxy)ethoxy)piperidin-1-yl)pyrimidin-4-yl)amino)-1-methyl-2-oxo-1,2-dihydroquinolin-3-yl)oxy)-N-methylacetamide] | 50 to 100 |
| CNC(=O)COc1cc2cc(Nc3nc(N4CCC(OCCOCCOCCOCCOc5ccc6c(c5)CN(C5CCC(=O)NC5=O)C6=O)CC4)ncc3Cl)ccc2n(C)c1=O (stereo not drawn) [compound 59, 2-((6-((5-chloro-2-(4-(2-(2-(2-(2-((2-(2,6-dioxopiperidin-3-yl)-1-oxoisoindolin-5-yl)oxy)ethoxy)ethoxy)ethoxy)ethoxy)piperidin-1-yl)pyrimidin-4-yl)amino)-1-methyl-2-oxo-1,2-dihydroquinolin-3-yl)oxy)-N-methylacetamide] | > 100 |
| CNC(=O)COc1cc2cc(Nc3nc(N4CCC(OCCOCCOCCOCCOCCOCCNc5cccc6c5C(=O)N(C5CCC(=O)NC5=O)C6=O)CC4)ncc3Cl)ccc2n(C)c1=O (stereo not drawn) [compound 81, 2-((6-((5-chloro-2-(4-((17-((2-(2,6-dioxopiperidin-3-yl)-1,3-dioxoisoindolin-4-yl)amino)-3,6,9,12,15-pentaoxaheptadecyl)oxy)piperidin-1-yl)pyrimidin-4-yl)amino)-1-methyl-2-oxo-1,2-dihydroquinolin-3-yl)oxy)-N-methylacetamide] | > 100 |
| CNC(=O)COc1cc2cc(Nc3nc(N4CCC(OCCOCCOCCOc5cc(-c6scnc6C)ccc5CNC(=O)[C@@H]5C[C@@H](O)CN5C(=O)[C@@H](c5cc(C)no5)C(C)C)CC4)ncc3Cl)ccc2n(C)c1=O [compound 50, (2S,4R)-N-(2-(2-(2-(2-((1-(5-chloro-4-((1-methyl-3-(2-(methylamino)-2-oxoethoxy)-2-oxo-1,2-dihydroquinolin-6-yl)amino)pyrimidin-2-yl)piperidin-4-yl)oxy)ethoxy)ethoxy)ethoxy)-4-(4-methylthiazol-5-yl)benzyl)-4-hydroxy-1-((R)-3-methyl-2-(3-methylisoxazol-5-yl)butanoyl)pyrrolidine-2-carboxamide] | > 100 |
